Experimental data from ChEMBL document CHEMBL1137255, “HIV-1 protease mutations and inhibitor modifications monitored on a series of complexes. Structural basis for the effect of the A71V mutation on the active site” (J Med Chem, 2006).

Legend:
[1] = biological target: T1, Human immunodeficiency virus type 1 protease (Human immunodeficiency virus 1, UniProt Q72874); experiment: Inhibition of HIV1 protease I8 mutant
[2] = biological target: T1, Human immunodeficiency virus type 1 protease; experiment: Inhibition of wild type HIV1 protease

SMILES | Ki [1] [nM] | Ki [2] [nM]
CC(C)(C)OC(=O)N[C@@H](Cc1ccccc1)[C@@H](O)CN[C@@H](Cc1ccccc1)C(=O)N[C@@H](CCC(=O)O)C(=O)N[C@@H](Cc1ccccc1)C(N)=O | 86 | 0.15
CC(C)(C)OC(=O)N[C@@H](Cc1ccccc1)[C@@H](O)CN[C@@H](Cc1ccccc1)C(=O)N[C@@H](CCC(N)=O)C(=O)N[C@@H](Cc1ccccc1)C(N)=O | 1000 | 33
CC(C)(C)OC(=O)N[C@@H](Cc1ccccc1)[C@@H](O)C[C@@H](Cc1ccccc1)C(=O)N[C@@H](CCC(N)=O)C(=O)N[C@@H](Cc1ccccc1)C(N)=O | 0.26 | 0.02
